Measured values taken from US10695314B2, “Antimicrobial composition containing 7,10-epoxyoctadeca-7,9-dienoic acid as active ingredient” (priority 2016, dated 2020).
≈ marks a conversion by molar mass, not a printed value. Read-outs that look alike come from different tables or passages of the source. Where a SMILES comes first, the peptide text is derived from it. Bridges are numbered along the chain shown (N, C = ends). [ ]: non-standard residue; d: D form. The star is where a group is joined. Ileψ(thiazoline)Cys = CC[C@H](C)[C@H](N)C1=N[C@H](C(=O)*)CS1; dOrn = NCCC[C@@H](N)C(=O)O

Legend:
[1] = tested on: Staphylococcus aureus ATCC 29213; experiment: Minimal inhibitory concentration (MIC), broth microdilution per CLSI; type: cell-based; conditions: Staphylococcus aureus, ATCC29213; strain 29213 (ATCC 29213); antibiotic alone; read-out: MIC
Method: The minimum inhibitory concentration (MIC) of antibiotics and the activity of 7,10-EODA of the present invention against Staphylococcus aureus strains were measured according to the CLSI guideline (CLSI document M100-517, 2007). Specifically, each antibiotic or 7,10-EODA was diluted 2-fold (200-0.97 μg/mL) by adding MHB (Mueller-Hinton Broth) to a 96-well microtiter plate. In the mid-exponential phase (0.5 OD600), the culture was diluted 10-fold with MHB and 0.1 mL aliquots of the diluent were added to wells containing the serially diluted test reagent and cultured at 37° C. for 12 hours. About the end of the culture period, the cell density was measured at an optical density of 600 nm (OD600) using a […].
(§1) Specifically, the minimal inhibitory concentration (MIC) was measured according to the method of Experimental Example 4 above, and the degree of inhibition (Agar diffusion analysis) (zone of inhibition; ZOI) was measured according to the method of Experimental Example 5 above.

MDRSA 01ST001 [2] = experiment: Agar disk diffusion analysis, zone of inhibition (ZOI); type: cell-based, Staphylococcus aureus; conditions: for antimicrobial activity, disk diffusion: 100 μg each, FIG. 4; for antimicrobial activity effect in combination with 7,10-EODA: antibiotic treated in combination with 7,10-EODA, Table 1 summary; for ZOI without 7.10-EODA / ZOI with 7.10-EODA: strain 001; for ZOI without 7.10-EODA: antibiotic ½×MIC alone; for ZOI with 7.10-EODA: antibiotic ½×MIC with 7,10-EODA ¼×MIC
Method: (§2) For synergy effect screening, a 0.1 mL aliquot of MRSA or MSSA strain (5×10^5 CFU/mL) cultured in a log-phase on TSA plates was inoculated. […] A disk including DMSO alone or 7,10-EODA alone (¼×MIC) was used as a control group. The plates were cultured under conditions of […] and 24 hours, and a synergistic effect was observed when the disk periphery including both antibiotic and 7,10-EODA was at least 5 mm in zone of inhibition (ZOI).
Specifically, in order to compare the antimicrobial activity of the 7,10-EODA or the antibiotic of the present invention against the MDRSA 01ST001 strain, the MDRSA 01ST001 strain was treated with the 7,10-EODA (E 100 μg) of the present invention, streptomycin (S, 100 μg), ampicillin (A, 100 μg), oxacillin (O, 100 μg), vancomycin (V, 100 μg), or penicillin (P, 100 μg), according to the method described in Experimental Example 5.
as §1

[3] = tested on: Staphylococcus aureus ATCC 29213; experiment: as above; type: cell-based; conditions: strain 29213; for ZOI without 7.10-EODA: antibiotic ½×MIC alone; for ZOI with 7.10-EODA: antibiotic ½×MIC with 7,10-EODA ¼×MIC
Method: as §2, §1

E. coli ATCC 8739 = experiment: Checker board synergy evaluation (MIC, FICI); type: cell-based; conditions: Escherichia coli, ATCC8739, 24 h; strain 8739; single agent
Method: (§3) Interactions of the selected antibiotic or 7,10-EODA of the present invention were evaluated using the checker board method (Nair et al. 2015). […] To obtain various concentrations of 7,10-EODA and antibiotic combination, a 2-fold dilution of the beta-lactam antibiotic was placed on the same plate. About 10^5 CFU/mL of microorganisms to be tested was added to the wells of each plate, and cultured for 24 hours at 37° C. without shaking. At the end of the culture period, cell growth was measured at OD600 using a spectrophotometer. Each 7,10-EODA and antibiotic combination was repeated at least three times. MIC was identified at the lowest concentration of antibiotics with growth inhibition of 90% or higher. FICAB means fractional inhibitory concentration (FIC) of drug A in the presence of drug B, and FICBA means fractional inhibitory concentration (FIC) of drug B in the presence of drug A. The fractional inhibitory concentration index (FICI) represents the sum of the FIC values of the interacting antibiotics. Interactions are based on FICI values, with FICIs less than 0.5 being categorized as synergy, FICIs 0.5 to 4 being indifferent, and FICIs greater than 4 being antagonistic. The degree of synergy was also measured based on the conventional Bliss independence model of synergy (Morones-Ramirez et al. 2013). Specifically, the degree of synergy was calculated by the following equation: S indicates degree of synergy, fAB indicates bacterial growth (optical density) when 7,10-EODA and antibiotics are used in combination, fA0 and f0B represent bacterial growth for antibiotic alone or 7,10-EODA single treatment, respectively. f00 represents bacterial growth in the absence of drug. The degree of synergy is divided into three categories based on the S value, where 0 means neutral, greater than 0 means synergism, and less than 0 means antagonism. S=(fA0/f00)(f0B/f00)−(fAB/f00)
(§4) The antimicrobial activity synergistic effects according to the combination treatment of 7,10-EODA and each antibiotic on methicillin-resistant Staphylococcus aureus (MRSA) strains 085, 093, 120, 136, and 165, MDRSA 01ST001, which is a multidrug-resistant Staphylococcus aureus (MDRSA) strain, E. coli ATCC 8739, and S. typhimurium KCTC 2515 were confirmed. […] Fractional inhibitory concentration indices (FICI) values accordingly were confirmed.

MDRSA 01ST001 [4] = experiment: Checker board synergy evaluation (MIC, FICI); type: cell-based; conditions: Staphylococcus aureus, 24 h; strain 001; single agent
Method: as §3, §4

MRSA strain 085 = experiment: Checker board synergy evaluation (MIC, FICI); type: cell-based; conditions: Staphylococcus aureus, 24 h
Method: as §3, §4

MRSA strain 093 = experiment: Checker board synergy evaluation (MIC, FICI); type: cell-based; conditions: Staphylococcus aureus, 24 h
Method: as §3, §4

MRSA strain 120 = experiment: Checker board synergy evaluation (MIC, FICI); type: cell-based; conditions: Staphylococcus aureus, 24 h
Method: as §3, §4

MRSA strain 136 = experiment: Checker board synergy evaluation (MIC, FICI); type: cell-based; conditions: Staphylococcus aureus, 24 h
Method: as §3, §4

MRSA strain 165 = experiment: Checker board synergy evaluation (MIC, FICI); type: cell-based; conditions: Staphylococcus aureus, 24 h
Method: as §3, §4

S. typhimurium KCTC 2515 = experiment: Checker board synergy evaluation (MIC, FICI); type: cell-based, Salmonella typhimurium; conditions: Salmonella enterica, 24 h; strain 2515; single agent
Method: as §3, with “S=(fA0/f00)(f0B/f00)−(fAB/f00) […]” for “S=(fA0/f00)(f0B/f00)−(fAB/f00)”

[5] = tested on: MRSA 01ST001 (MDRSA 01ST001); experiment: Antimicrobial activity on solid medium (clear zone around filter paper); type: cell-based, Staphylococcus aureus; conditions: for clear zone on agar plate: 100 μg per filter paper, 37° C., 2 to 3 days, FIG. 1; for antimicrobial activity on solid medium: MDRSA 01ST001, FIG. 3
Method: (§5) First, 1.5% of potato agar was added to the YDP medium, sterilized, and then an agar plate hardened by pouring about 20 ml in a plastic Petri dish was used. MRSA 01ST001 was diluted to about 107/ml, and then about 500 μl was dispersed evenly on the agar plate.
(§6) The size of the clear zone around the filter paper shown after the culture at 37° C. for 2 to 3 days after the inoculation was measured to confirm the degree of antimicrobial activity. At this time, vancomycin 100 μg, oxacillin 100 μg, ampicillin 100 μg, streptomycin 100 μg, and penicillin 100 μg were used as control groups.
(§7) The antimicrobial activity can be confirmed with the degree showing the clear zone on the agar plate. It is judged that the larger the clear zone, the higher the antimicrobial activity. The results are illustrated in FIG. 1 and FIG. 2.
(§8) The results are illustrated in FIG. 3. The experiment was carried out in the same manner as in Example 1-2.

[6] = tested on: Staphylococcus aureus ATCC 29213; experiment: as above; type: cell-based; conditions: FIG. 3
Method: as §5, §6, §7, §8

MDRSA 01ST001 [7] = experiment: Minimal inhibitory concentration (MIC), broth microdilution per CLSI; conditions: Staphylococcus aureus
MDRSA 01ST001 [8] = experiment: Degree of synergy (Bliss independence model); type: cell-based, Staphylococcus aureus; conditions: antibiotic ¼×MIC in combination with 7,10-EODA 15.6 μg/mL (⅛×MIC), 24 hours
Method: as §3
(§9) The results are illustrated in FIG. 10. […]

MRSA 01ST018 = experiment: Degree of synergy (Bliss independence model); type: cell-based, Staphylococcus aureus; conditions: antibiotic ¼×MIC in combination with 7,10-EODA 15.6 μg/mL (⅛×MIC); 24 hours; MRSA 018
Method: as §3, §9

MDRSA 01ST001 [9] = experiment: microbe, parasite or virus in culture; type: cell-based; conditions: Staphylococcus aureus, 12 h
Text: The results are illustrated in FIG. 11.

HepG2 animal cells = tested on: HepG2 animal cells
Method: Simple toxicity tests were performed for the four components of 7,10-EODA, DOD, oleic acid, and DMSO. The target cells were HepG2 animal cells and the results were obtained by MTT assay.

MDRSA 01ST001 [10] = conditions: 125 μg/ml
MDRSA 01ST001 [11] = experiment: microbe, parasite or virus in culture; conditions: Staphylococcus aureus
[12] = strain 085, single agent, read-out: MIC
[13] = strain 093, single agent, read-out: MIC
[14] = strain 120, single agent, read-out: MIC
[15] = strain 136, single agent, read-out: MIC
[16] = strain 165, single agent, read-out: MIC

Compound | MIC [1] [µg/mL] | antimicrobial activity, disk diffusion (MDRSA 01ST001 [2]) | antimicrobial activity effect in combination with 7,10-EODA (MDRSA 01ST001 [2]) | ZOI without 7.10-EODA (MDRSA 01ST001 [2]) [mm] | ZOI with 7.10-EODA (MDRSA 01ST001 [2]) [mm] | ZOI without 7.10-EODA [3] [mm] | ZOI with 7.10-EODA [3] [mm] | MIC (E. coli ATCC 8739) [µg/mL] | MIC (MDRSA 01ST001 [4]) [µg/mL] | MIC (MRSA strain 085; [12]) [µg/mL] | MIC (MRSA strain 093; [13]) [µg/mL] | MIC (MRSA strain 120; [14]) [µg/mL] | MIC (MRSA strain 136; [15]) [µg/mL] | MIC (MRSA strain 165; [16]) [µg/mL] | MIC (S. typhimurium KCTC 2515) [µg/mL] | clear zone on agar plate [5] | antimicrobial activity on solid medium [5] | antimicrobial activity on solid medium [6] | MIC (MDRSA 01ST001 [7]) [µg/mL] | synergy index (MDRSA 01ST001 [8]) | further results
Cc1onc(-c2ccccc2)c1C(=O)N[C@@H]1C(=O)N2[C@@H]1SC(C)(C)[C@@H]2C(=O)O [OXA, oxacillin] | 0.04 (≈ 0.0996 µM) | resistant | strong antimicrobial activity effect | 6.0 ± 0.1 | 14.1 | 8.3 ± 0.1 | 9.60 | 200 | 62.5 | 250 | 2000 | 250 | 62.5 | 31.2 | 250 | no clear zone appeared | did not show an antimicrobial activity | high antimicrobial activity | 62.5 (≈ 156 µM) |  | 
gentamicin |  |  |  |  |  |  |  |  |  |  |  |  |  |  |  |  |  |  |  | 1.37 | synergy index (MRSA 01ST018): 1.32
CC1(C)S[C@@H]2[C@H](NC(=O)[C@H](N)c3ccccc3)C(=O)N2[C@H]1C(=O)O [AMP, ampicillin] | 1.97 (≈ 5.64 µM) | resistant | strong antimicrobial activity effect | 7.3 ± 0.2 | 14.2 | 16.9 ± 0.3 | 17.0 | 0.6 | 1000 | 1000 | 31.2 | 250 | 1000 | 2000 | 0.6 | no clear zone appeared |  |  | 1000 (≈ 2860 µM) |  | 
CC[C@H](C)[C@H](N)C1=N[C@H](C(=O)N[C@@H](CC(C)C)C(=O)N[C@H](CCC(=O)O)C(=O)N[C@H](C(=O)N[C@H]2CCCCNC(=O)[C@H](CC(N)=O)NC(=O)[C@@H](CC(=O)O)NC(=O)[C@H](Cc3cnc[nH]3)NC(=O)[C@@H](Cc3ccccc3)NC(=O)[C@H]([C@@H](C)CC)NC(=O)[C@@H](CCCN)NC2=O)[C@@H](C)CC)CS1 [bacitracin] ({Ileψ(thiazoline)Cys}-L[dE]IK[dOrn]I[dF]H[dD]N; lactam 4-C) |  |  |  |  |  |  |  |  |  |  |  |  |  |  |  |  |  |  |  | 0.8 | 
CCCCCCCCc1ccc(CCCCCC(=O)O)o1 [7,10-EODA, 7,10-epoxyoctadeca-7,9-dienoic acid] |  | showed the antimicrobial activity |  |  |  |  |  | 500 | 125 |  |  |  |  |  | 500 | clear zone similar in size to vancoclin | higher antimicrobial activity than Staphylococcus aureus ATCC 29213 | antimicrobial activity was exhibited |  |  | antimicrobial activity according to concentration (MDRSA 01ST001 [2]; 50, 100, 200 and 400 μg, FIG. 5): high in a concentration-dependent manner; MIC (MRSA strain 085): 125 µg/mL; MIC (MRSA strain 093): 125 µg/mL; MIC (MRSA strain 120): 125 µg/mL; MIC (MRSA strain 136): 125 µg/mL; MIC (MRSA strain 165): 125 µg/mL; clear zone size with treatment concentration ([5]; 50, 100, 200 and 400 μg, FIG. 2): improved in a concentration-dependent manner; MIC90 (MDRSA 01ST001 [9]; read-out: MIC90 concentration): ≤ 15.6 µg/mL; inhibition at 15.6 µg/mL (MDRSA 01ST001 [9]; read-out: reduction of residual viable microorganisms compared to the control): > 90%; toxicity as a whole (HepG2 animal cells): not highly toxic; time until MDRSA 01ST001 was completely killed (MDRSA 01ST001 [10]): ≤ 10 min; viability at 62.5 µg/mL (MDRSA 01ST001 [11]; 10 min, read-out: residual viable microorganism concentration compared to the control): < 10%; inhibition at 15.6 µg/mL (MDRSA 01ST001 [11]; 4 h, read-out: decrease of residual viable microorganism concentration compared to the control): ≥ 50%
